Laboratory results taken from patent US20180369087A1, “Hydrogen Peroxide Booster System for Enhanced Teeth Whitening” (Colgate-Palmolive Company, priority 2015, published 2018).

Experiment: SNOBS stability in anhydrous formulation, HPLC
Assay type: physicochemical
Conditions: for % SNOBS: composition of Table 5
Method: The composition of Table 5 was aged at 40° C. and at room temperature for 8 weeks and 13 weeks respectively. The percentage of SNOBS remaining was quantified by HPLC. The results in Table 6 indicate that there is sufficient SNOBS remaining in the composition after aging at both room temperature and at 40° C. to be efficacious as a booster for the peroxide component in a tooth whitening composition.

In the case of CCCCCCCCC(=O)Oc1ccc(S(=O)(=O)[O-])cc1.[Na+] [SNOBS, sodium nonanoyloxybenzenesulfonate], the “% Loss of SNOBS” value (4 weeks/40° C.) was 3.1%, the % SNOBS (4 weeks/40° C.) was 9.36% and the “% Loss of SNOBS” value (8 weeks/40° C.) was 6.4%. The “% SNOBS” value (8 weeks/40° C.) was 8.99%, the “% Loss of SNOBS” value (13 weeks/Room Temperature (RT)) was 4.06% and the “% SNOBS” value (13 weeks/Room Temperature (RT)) was 9.21%. The “% SNOBS” value (Initial) was 9.6%.
